In paper PMC6920847, “2-Hydroxy-N-phenylbenzamides and Their Esters Inhibit Acetylcholinesterase and Butyrylcholinesterase” (Biomolecules, 2019):
Read-outs that look alike come from different tables or passages of the source.

Key:
[1] = biological target: T1, AChE from electric eel (EeAChE) (Electrophorus electricus, UniProt O42275); test: Inhibition of AChE, modified Ellman's spectrophotometric method; assay type: biochemical, electric eel (Electrophorus electricus L.); conditions: for Selectivity AChE/BuChE: SI = IC50 for AChE/IC50 for BuChE, SI lower than 1 means selectivity for AChE
T1 construct: Acetylcholinesterase was obtained from electric eel (Electrophorus electricus L.); purchased Sigma-Aldrich (Prague, Czech Republic); host or cells: electric eel (natural source)
T1 sequence (O42275 24-633): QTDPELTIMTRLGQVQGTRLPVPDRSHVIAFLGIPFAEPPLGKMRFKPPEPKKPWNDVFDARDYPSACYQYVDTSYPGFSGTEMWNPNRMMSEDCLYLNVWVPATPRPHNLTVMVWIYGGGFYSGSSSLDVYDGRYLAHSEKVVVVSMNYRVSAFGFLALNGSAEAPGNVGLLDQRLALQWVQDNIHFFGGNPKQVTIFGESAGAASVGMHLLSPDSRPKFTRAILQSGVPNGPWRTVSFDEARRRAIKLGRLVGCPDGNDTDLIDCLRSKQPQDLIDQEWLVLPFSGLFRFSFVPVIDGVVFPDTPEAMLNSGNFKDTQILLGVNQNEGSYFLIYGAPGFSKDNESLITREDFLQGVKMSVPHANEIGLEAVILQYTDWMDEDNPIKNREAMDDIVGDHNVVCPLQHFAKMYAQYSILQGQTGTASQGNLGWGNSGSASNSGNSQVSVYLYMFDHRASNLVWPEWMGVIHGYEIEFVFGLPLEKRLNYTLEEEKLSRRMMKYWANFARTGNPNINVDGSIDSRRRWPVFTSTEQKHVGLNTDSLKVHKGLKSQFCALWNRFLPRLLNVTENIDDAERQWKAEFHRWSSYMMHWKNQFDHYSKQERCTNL
Procedure: (§1) The IC50 values were determined using the spectrophotometric Ellman’s method modified according to Zdražilová et al., which is a simple, rapid and direct method to determine the SH and -S-S- group content in proteins. This method is widely used for the screening of the efficiency of cholinesterases inhibitors. The enzymatic activity is measured indirectly by quantifying the concentration of the 5-thio-2-nitrobenzoic acid ion formed in the reaction between the thiol reagent 5,5′-dithio-bis(2-nitrobenzoic acid) and thiocholine, a product of substrate hydrolysis (i.e., acetylthiocholine; ATCH) by cholinesterases.
(§2) The enzyme activity in final reaction mixture (2000 µL) was 0.2 U/mL, concentration of acetylthiocholine (or butyrylthiocholine, BTCH) 40 µM and concentration of 5,5′-dithio-bis(2-nitrobenzoic acid) 0.1 mM for all reactions. The tested compounds were dissolved in DMSO and then diluted in demineralized water to the concentration of 1 µM. […] All measurements were carried in triplicate and the average values of reaction rate (v0-uninhibited reaction, vi-inhibited reaction) were used for construction of the dependence v0/vi vs. concentration of inhibitor. From obtained equation of regression curve, the value of IC50 was calculated (based on the definition of IC50).
(§3) Acetylcholinesterase was obtained from electric eel (Electrophorus electricus L.) and butyrylcholinesterase was from an equine serum.
(§4) Thirty-six benzamides 1–4l were evaluated as potential inhibitors of AChE from electric eel (EeAChE) and BuChE from equine serum (EqBuChE) using Ellman’s spectrophotometric method modified according to Zdražilová et al.. Their efficacy is expressed as IC50, i.e., the concentration required for 50% inhibition of the enzymatic activity. Based on inhibition of both cholinesterases, we calculated selectivity indexes (SI) as the ratio of IC50 value for AChE/IC50 value for BuChE to express the selectivity quantitatively (Table 1).

[2] = biological target: T2, BuChE from equine serum (EqBuChE) (Equus caballus, UniProt P81908); test: Inhibition of BuChE, modified Ellman's spectrophotometric method; assay type: biochemical; conditions: mean ± SD, n = three experiments
T2 construct: butyrylcholinesterase was from an equine serum; purchased Sigma-Aldrich (Prague, Czech Republic); host or cells: equine serum (natural source)
T2 sequence (P81908 whole entry): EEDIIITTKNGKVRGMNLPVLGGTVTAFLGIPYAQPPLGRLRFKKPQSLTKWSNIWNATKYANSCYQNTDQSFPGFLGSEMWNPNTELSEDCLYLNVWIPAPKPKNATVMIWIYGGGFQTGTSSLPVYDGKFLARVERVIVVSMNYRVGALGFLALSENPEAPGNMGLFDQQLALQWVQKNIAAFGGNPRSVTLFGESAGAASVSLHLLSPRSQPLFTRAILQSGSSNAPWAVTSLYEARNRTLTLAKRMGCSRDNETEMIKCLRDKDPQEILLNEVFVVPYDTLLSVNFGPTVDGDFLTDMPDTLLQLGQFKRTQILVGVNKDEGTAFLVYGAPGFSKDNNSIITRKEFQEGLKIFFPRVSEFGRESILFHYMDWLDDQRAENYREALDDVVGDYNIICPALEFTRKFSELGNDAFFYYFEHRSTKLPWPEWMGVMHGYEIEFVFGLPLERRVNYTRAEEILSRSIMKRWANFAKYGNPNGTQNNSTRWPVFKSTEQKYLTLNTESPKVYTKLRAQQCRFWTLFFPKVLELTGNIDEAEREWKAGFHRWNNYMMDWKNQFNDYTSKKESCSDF
Procedure: as §1, §2, §3, §4

[3] = mean ± SD, n = three experiments, read-out: IC50 (EeAChE)

| SMILES | IC50 [1] [µM] | Selectivity AChE/BuChE [1] | IC50 ([2]; IC50 (EqBuChE)) [µM] | IC50 [1, 3] [µM] | IC50 ([2]; read-out: IC50 (EqBuChE)) [µM] |
| --- | --- | --- | --- | --- | --- |
| O=C(Nc1ccc(Br)cc1)c1ccc(Cl)cc1O [Compound 3g] | 58.3 ± 1.57 | 0.34 | 174 ± 4.02 |  |  |
| O=C(Nc1ccccc1)c1ccccc1O [Compound 1, salicylanilide] |  | 0.24 |  | 49.7 ± 3.73 | 206 ± 12.1 |
| O=C(Nc1cccc(Br)c1)c1ccc(Cl)cc1O [Compound 3f] |  | 0.36 |  | 60.03 ± 0.42 | 168 ± 2.06 |
| O=C(Nc1ccc(Cl)c(Cl)c1)c1cc(Br)ccc1O [Compound 4c] |  | 0.50 |  | 60.8 ± 3.65 | 123 ± 7.2 |
| O=C(Nc1ccc(C(F)(F)F)cc1)c1ccc(Cl)cc1O [Compound 3k, 4-chloro-2-hydroxy-N-[4-(trifluoromethyl)phenyl]benzamide] | 60.3 ± 2.39 | 0.30 | 200 ± 2.02 |  |  |
| O=C(Nc1cc(C(F)(F)F)cc(C(F)(F)F)c1)c1ccc(Cl)cc1O [Compound 3l] |  | 0.36 |  | 54.7 ± 2.05 | 150.5 ± 0.87 |
| O=C(Nc1ccc(C(F)(F)F)cc1)c1cc(Br)ccc1O [Compound 4k] | 44.8 ± 3.44 | 0.33 | 134.8 ± 0.86 |  |  |
| O=C(Nc1cccc(F)c1)c1ccc(Cl)cc1O [Compound 3h] | 60.8 ± 1.74 | 0.42 | 146 ± 4.07 |  |  |
| O=C(Nc1ccc(Cl)c(Cl)c1)c1ccc(Cl)cc1O [Compound 3c] |  | 0.46 |  | 46.3 ± 0.56 | 100 ± 1.15 |
| O=C(Nc1cccc(Cl)c1)c1cc(Cl)ccc1O [Compound 2a] |  | 0.26 |  | 59.5 ± 3.8 | 228 ± 11.3 |
| O=C(Nc1cccc(C(F)(F)F)c1)c1cc(Cl)ccc1O [Compound 2j] | 54.41 ± 0.25 | 0.45 | 120 ± 3.02 |  |  |
| O=C(Nc1cccc(Br)c1)c1cc(Cl)ccc1O [Compound 2f] | 50.03 ± 0.15 | 0.35 | 141 ± 1.13 |  |  |
| O=C(Nc1cc(Cl)c(Cl)c(Cl)c1)c1cc(Br)ccc1O [Compound 4e, 5-Bromo-N-(3,4,5-trichlorophenyl)-2-hydroxybenzamide] |  | 0.30 |  | 42.1 ± 2.41 | 140 ± 6.2 |
| O=C(Nc1ccc(Cl)cc1)c1cc(Cl)ccc1O [Compound 2b] | 76.5 ± 2.17 | 0.45 | 170 ± 3.09 |  |  |
| O=C(Nc1ccc(Br)cc1)c1cc(Cl)ccc1O [Compound 2g] |  | 0.49 |  | 58.2 ± 4.87 | 119 ± 6.65 |
| O=C(Nc1cccc(F)c1)c1cc(Cl)ccc1O [Compound 2h] | 58.6 ± 3.98 | 0.38 | 154 ± 8.38 |  |  |
| O=C(Nc1ccc(F)cc1)c1ccc(Cl)cc1O [Compound 3i] | 62.8 ± 1.53 | 0.41 | 152 ± 7.58 |  |  |
| O=C(Nc1ccc(F)cc1)c1cc(Br)ccc1O [Compound 4i] | 61.2 ± 1.08 | 0.45 | 137 ± 1.47 |  |  |
| O=C(Nc1cc(Cl)cc(Cl)c1)c1cc(Cl)ccc1O [Compound 2d, 5-Chloro-N-(3,5-dichlorophenyl)-2-hydroxybenzamide] |  | 0.41 |  | 46.2 ± 0.63 | 112 ± 7.98 |

| SMILES | IC50 [1] [µM] | Selectivity AChE/BuChE [1] | IC50 ([2]; IC50 (EqBuChE)) [µM] | IC50 [1, 3] [µM] | IC50 ([2]; read-out: IC50 (EqBuChE)) [µM] |
| --- | --- | --- | --- | --- | --- |
| O=C(Nc1ccc(F)cc1)c1cc(Cl)ccc1O [Compound 2i] | 48.3 ± 8.9 | 0.36 | 133 ± 15.8 |  |  |
| O=C(Nc1cc(Cl)cc(Cl)c1)c1ccc(Cl)cc1O [Compound 3d, 4-Chloro-N-(3,5-dichlorophenyl)-2-hydroxybenzamide] |  | 0.36 |  | 50.15 ± 0.26 | 141 ± 2.8 |
| O=C(Nc1cccc(F)c1)c1cc(Br)ccc1O [Compound 4h] | 54.4 ± 0.73 | 0.46 | 119 ± 2.53 |  |  |
| O=C(Nc1cc(Cl)c(Cl)c(Cl)c1)c1cc(Cl)ccc1O [Compound 2e, 5-Chloro-N-(3,4,5-trichlorophenyl)-2-hydroxybenzamide] |  | 0.50 |  | 51.06 ± 0.49 | 102.7 ± 0.97 |
| O=C1c2ccc(Cl)cc2OP(=O)(c2ccccc2)N1c1ccc(C(F)(F)F)cc1 (racemic) [Compound 5d, (RS)-7-Chloro-2-phenyl-3-[4-(trifluoromethyl)phenyl]-3-hydrobenzo[e][1,3,2]oxazaphosphinin-4-one 2-oxide] |  | 1.93 |  | 48.1 ± 1.7 | 25 ± 0.3 |
| O=C(Nc1cc(Cl)c(Cl)c(Cl)c1)c1ccc(Cl)cc1O [Compound 3e, 4-Chloro-N-(3,4,5-trichlorophenyl)-2-hydroxybenzamide] |  | 0.44 |  | 57.8 ± 4.05 | 132 ± 4.31 |
| O=C1c2ccc(Cl)cc2OP(=S)(c2ccccc2)N1c1ccc(C(F)(F)F)cc1 (racemic) [Compound 5e, (RS)-7-Chloro-2-phenyl-3-[4-(trifluoromethyl)phenyl]-3-hydrobenzo[e][1,3,2]oxazaphosphinin-4-one 2-sulfide] |  | 0.37 |  | 63.5 ± 1.41 | 170 ± 13.6 |
| O=C(Nc1cccc(C(F)(F)F)c1)c1ccc(Cl)cc1O [Compound 3j] | 68.3 ± 3.78 | 0.42 | 163 ± 11.7 |  |  |
| O=C(Nc1ccc(Cl)c(Cl)c1)c1cc(Cl)ccc1O [Compound 2c] |  | 0.33 |  | 60.8 ± 6.88 | 186 ± 15.7 |
| O=C(Nc1cccc(Br)c1)c1cc(Br)ccc1O [Compound 4f] | 69.7 ± 9.97 | 0.48 | 146 ± 3.53 |  |  |
| O=C(Nc1cc(C(F)(F)F)cc(C(F)(F)F)c1)c1cc(Br)ccc1O [Compound 4l] | 48.5 ± 1.07 | 0.91 | 53.5 ± 3.2 |  |  |
| O=C(Nc1cc(Cl)cc(Cl)c1)c1cc(Br)ccc1O [Compound 4d, 5-Bromo-N-(3,5-dichlorophenyl)-2-hydroxybenzamide] |  | 0.24 |  | 33.1 ± 0.47 | 135.9 ± 0.14 |
| O=C(Nc1ccc(Cl)cc1)c1ccc(Cl)cc1O [Compound 3b] | 56.2 ± 3.23 | 0.37 | 152 ± 3.13 |  |  |
| O=C(Nc1ccc(Cl)cc1)c1cc(Br)ccc1O [Compound 4b] | 85.8 ± 6.1 | 0.66 | 131 ± 3.99 |  |  |
| O=C(Nc1cc(C(F)(F)F)cc(C(F)(F)F)c1)c1cc(Cl)ccc1O [Compound 2l] |  | 0.78 |  | 50.2 ± 0.88 | 64.4 ± 1.34 |
| O=C(Nc1ccc(Br)cc1)c1cc(Br)ccc1O [Compound 4g] |  | 0.63 |  | 70.3 ± 2.85 | 112 ± 1.79 |
| O=C(Nc1cccc(C(F)(F)F)c1)c1cc(Br)ccc1O [Compound 4j, 5-bromo-2-hydroxy-N-[3-(trifluoromethyl)phenyl]benzamide] | 42.67 ± 0.18 | 0.36 | 117 ± 2.23 |  |  |
| O=C(Nc1cccc(Cl)c1)c1cc(Br)ccc1O [Compound 4a] | 62 ± 6.48 | 0.46 | 134 ± 1.63 |  |  |
| O=C(Nc1cccc(Cl)c1)c1ccc(Cl)cc1O [Compound 3a] | 58.1 ± 1.2 | 0.43 | 134.3 ± 0.24 |  |  |
